# Experimental data from US12612409B2, “Pyrrolopyrimidines as CFTR potentiators” (Cystic Fibrosis Foundation, priority 2016, dated 2026).
# pEC50: −log10 of the molar value.
# Target: T1, recombinant F508del V470 CFTR in Fischer rat thyroid (FRT) cells (Homo sapiens, UniProt P13569, DEL508-508)
# T1 construct: expressed in transfected cells
# Test: FRT ion flux assay of F508del CFTR potentiation
# Assay type: cell-based
# Details: FRT cells expressing F508del V470 CFTR, forskolin 20 uM, 27° C. pre-incubation
# Procedure: FRT Ion Flux Assay of F508del CFTR Potentiation
# Fischer rat thyroid (FRT) cell lines stably expressing recombinant F508del V470 CFTR and halide-sensitive yellow fluorescent protein (Pedemonte et al., J. Clin. Invest. 115(9) 2564-71 (2005)) were seeded at 25,000 cells/well in 50 uL/well of culture medium into black-walled, clear bottom tissue-culture-treated 384-well plates (Corning, cat. no. 3712). After one day, the cells were pre-incubated at 27° C./5% CO2 for 16-24 hours. The cells were then washed with dPBS and treated with forskolin (20 uM) and test compound for 30 mi by addition of 20 uL of compound dilution buffer (dPBS containing forskolin and test compound). Plates were loaded into FLIPR384 fluorescence imaging plate reader (Molecular Devices). After an initial fluorescence reading, iodide buffer (25 uL) (composition (in mM): 137 NaI, 1.5 K2PO4, 8.1 NaH2PO4, 2.7 KCl, 0.5 MgCl2, 1 CaCl2) was added and a second fluorescence reading was made after approximately 21 seconds. Data treatment involved division of the second fluorescence reading by the initial fluorescence reading, then scaling of the resulting normalized endpoint fluorescence with respect to the responses for DMSO (0%) and a positive control potentiator (100%).
# T1 sequence (P13569 with tags, fused parts or gaps DEL508-508): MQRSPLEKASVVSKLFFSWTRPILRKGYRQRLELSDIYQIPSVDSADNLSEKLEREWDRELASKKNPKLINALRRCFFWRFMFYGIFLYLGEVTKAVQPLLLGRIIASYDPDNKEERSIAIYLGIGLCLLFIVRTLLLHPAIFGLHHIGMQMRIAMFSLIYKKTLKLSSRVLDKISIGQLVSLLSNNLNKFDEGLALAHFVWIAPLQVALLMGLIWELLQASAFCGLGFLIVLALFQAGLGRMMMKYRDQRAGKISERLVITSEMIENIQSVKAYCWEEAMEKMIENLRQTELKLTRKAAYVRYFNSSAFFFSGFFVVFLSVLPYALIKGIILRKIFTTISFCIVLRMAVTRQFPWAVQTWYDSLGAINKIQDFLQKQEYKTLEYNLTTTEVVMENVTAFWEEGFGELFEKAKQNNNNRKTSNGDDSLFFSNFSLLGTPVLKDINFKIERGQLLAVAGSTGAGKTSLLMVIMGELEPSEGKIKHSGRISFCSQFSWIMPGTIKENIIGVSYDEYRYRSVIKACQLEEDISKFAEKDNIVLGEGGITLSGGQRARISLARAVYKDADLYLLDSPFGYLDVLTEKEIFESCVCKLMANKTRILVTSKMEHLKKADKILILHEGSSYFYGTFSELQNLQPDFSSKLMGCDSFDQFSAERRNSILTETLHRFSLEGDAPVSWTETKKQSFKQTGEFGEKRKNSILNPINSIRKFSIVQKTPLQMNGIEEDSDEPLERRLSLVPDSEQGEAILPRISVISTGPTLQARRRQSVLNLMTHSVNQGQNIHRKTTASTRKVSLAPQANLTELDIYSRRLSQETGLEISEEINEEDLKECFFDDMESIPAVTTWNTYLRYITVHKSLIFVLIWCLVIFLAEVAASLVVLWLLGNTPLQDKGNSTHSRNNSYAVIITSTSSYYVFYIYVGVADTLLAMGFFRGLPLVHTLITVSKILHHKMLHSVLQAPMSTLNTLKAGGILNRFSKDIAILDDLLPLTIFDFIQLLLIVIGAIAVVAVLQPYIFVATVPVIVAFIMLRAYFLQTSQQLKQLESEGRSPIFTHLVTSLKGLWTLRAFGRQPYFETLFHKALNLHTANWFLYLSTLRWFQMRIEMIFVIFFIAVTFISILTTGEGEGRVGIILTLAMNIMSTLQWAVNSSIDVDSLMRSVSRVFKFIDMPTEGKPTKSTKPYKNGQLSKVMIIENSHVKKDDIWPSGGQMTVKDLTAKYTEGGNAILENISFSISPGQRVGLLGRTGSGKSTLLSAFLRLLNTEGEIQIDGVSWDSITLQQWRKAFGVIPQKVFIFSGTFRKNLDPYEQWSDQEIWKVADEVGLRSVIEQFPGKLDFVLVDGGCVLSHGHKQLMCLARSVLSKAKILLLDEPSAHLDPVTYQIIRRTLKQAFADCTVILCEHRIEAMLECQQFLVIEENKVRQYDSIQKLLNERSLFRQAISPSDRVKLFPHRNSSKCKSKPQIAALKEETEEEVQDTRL
row,Compound,pEC50
1,"CCC(c1nnn(-c2ccc(F)cc2F)c1C)n1cc(-c2cnc(C(F)(F)F)nc2)c2c(N)ncnc21 (single isomer, unassigned) [Example 190]",6.34
2,"CCC(c1cn(-c2ccccc2F)nn1)n1cc(-c2cc[nH]n2)c2c(N)ncnc21 (single isomer, unassigned; enantiomer 1) [Example 147, 7-{1-[1-(2-Fluorophenyl)-1H-1,2,3-triazol-4-yl]propyl}-5-(1H-pyrazol-3-yl)-7H-pyrrolo[2,3-d]pyrimidin-4-amine, enantiomer 1]",6.32
3,"CC(c1cn(-c2ccccc2F)nn1)n1cc(-c2cc[nH]n2)c2c(N)ncnc21 (single isomer, unassigned; enantiomer 2) [Example 122, 7-{1-[1-(2-Fluorophenyl)-1H-1,2,3-triazol-4-yl]ethyl}-5-(1H-pyrazol-3-yl)-7H-pyrrolo[2,3-d]pyrimidin-4-amine, enantiomer 2]",5.98
4,"CC(c1cn(-c2ccc(F)cc2F)nn1)n1cc(-c2cnc(C(F)(F)F)nc2)c2c(N)ncnc21 (single isomer, unassigned; enantiomer 2) [Example 124, 7-{1-[1-(2,4-Difluorophenyl)-1H-1,2,3-triazol-4-yl]ethyl}-5-[2-(trifluoromethyl)pyrimidin-5-yl]-7H-pyrrolo[2,3-d]pyrimidin-4-amine, enantiomer 2]",5.91
5,"CCC(c1cn(-c2ccccc2F)nn1)n1cc(-c2cnc(C(F)F)nc2)c2c(N)ncnc21 (single isomer, unassigned; enantiomer 2) [Example 144, 5-[2-(Difluoromethyl)pyrimidin-5-yl]-7-{1-[1-(2-fluorophenyl)-1H-1,2,3-triazol-4-yl]propyl}-7H-pyrrolo[2,3-d]pyrimidin-4-amine, enantiomer 2]",6.14
6,"CCC(c1cn(-c2ccccc2F)nn1)n1cc(-c2cnc(N(C)C)nc2)c2c(N)ncnc21 (single isomer, unassigned; enantiomer 2) [Example 146, 5-[2-(Dimethylamino)pyrimidin-5-yl]-7-{1-[1-(2-fluorophenyl)-1H-1,2,3-triazol-4-yl]propyl}-7H-pyrrolo[2,3-d]pyrimidin-4-amine, enantiomer 2]",5.93
7,"CCC(c1c[nH]c(-c2ccc(F)cc2F)n1)n1cc(-c2cnc(C(F)(F)F)nc2)c2c(N)ncnc21 (single isomer, unassigned; enantiomer 2) [Example 178, 7-{1-[2-(2,4-Difluorophenyl)-2H-imidazol-4-yl]propyl}-5-[2-(trifluoromethyl)pyrimidin-5-yl]-7H-pyrrolo[2,3-d]pyrimidin-4-amine, enantiomer 2]",6.07
8,"Cc1c(C(C)n2cc(-c3cnc(C(F)(F)F)nc3)c3c(N)ncnc32)nnn1-c1ccccc1F (single isomer, unassigned; enantiomer 2) [Example 180, 7-{1-[1-(2-Fluorophenyl)-5-methyl-1H-1,2,3-triazol-4-yl]ethyl}-5-[2-(trifluoromethyl)pyrimidin-5-yl]-7H-pyrrolo[2,3-d]pyrimidin-4-amine, enantiomer 2]",5.72
9,"CCC(c1cn(-c2ccc(OC)nc2)nn1)n1cc(-c2cnc(C(F)(F)F)nc2)c2c(N)ncnc21 (single isomer, unassigned; enantiomer 2) [Example 310, 7-{1-[1-(6-Methoxypyridin-3-yl)-1H-1,2,3-triazol-4-yl]propyl}-5-[2-(trifluoromethyl)pyrimidin-5-yl]-7H-pyrrolo[2,3-d]pyrimidin-4-amine, enantiomer 2]",5.89
10,"CC(c1cnc(-c2ccccc2F)[nH]1)n1cc(-c2cccc3ccncc23)c2c(N)ncnc21 (stereo not drawn) [Example 61, 7-{1-[2-(2-Fluorophenyl)-1H-imidazol-5-yl]ethyl}-5-(isoquinolin-8-yl)-7H-pyrrolo[2,3-d]pyrimidin-4-amine]",5.83
11,"CC(c1cnc(-c2ccccc2F)[nH]1)n1cc(-c2cnc3[nH]ccc3c2)c2c(N)ncnc21 (stereo not drawn) [Example 62, 7-{1-[2-(2-Fluorophenyl)-1H-imidazol-5-yl]ethyl}-5-(7H-pyrrolo[2,3-b]pyridin-5-yl)-7H-pyrrolo[2,3-d]pyrimidin-4-amine]",5.65
12,"Cc1ccc2cc(F)c(-c3cn(C(C)c4cnc(-c5ccccc5F)[nH]4)c4ncnc(N)c34)cc2n1 (stereo not drawn) [Example 63, 5-(6-Fluoro-2-methylquinolin-7-yl)-7-{1-[2-(2-fluorophenyl)-1H-imidazol-5-yl]ethyl}-7H-pyrrolo[2,3-d]pyrimidin-4-amine]",5.34
13,"CC(c1cnc(-c2ccccc2F)[nH]1)n1cc(-c2ccc3c(c2)OCC(=O)N3)c2c(N)ncnc21 (stereo not drawn) [Example 65, 7-(4-Amino-7-{1-[2-(2-fluorophenyl)-1H-imidazol-5-yl]ethyl}-7H-pyrrolo[2,3-d]pyrimidin-5-yl)-2H-1,4-benzoxazin-3(4H)-one]",5.85
14,"COc1cc2c(cc1-c1cn(C(C)c3cnc(-c4ccccc4F)[nH]3)c3ncnc(N)c13)CCC2 (stereo not drawn) [Example 69, 7-{1-[2-(2-Fluorophenyl)-1H-imidazol-5-yl]ethyl}-5-(6-methoxy-2,3-dihydro-1H-inden-5-yl)-7H-pyrrolo[2,3-d]pyrimidin-4-amine]",6.04
15,"CC(c1cnc(-c2ccccc2F)[nH]1)n1cc(-c2cn[nH]c2)c2c(N)ncnc21 (stereo not drawn) [Example 71, 7-{1-[2-(2-Fluorophenyl)-1H-imidazol-5-yl]ethyl}-5-(1H-pyrazol-4-yl)-7H-pyrrolo[2,3-d]pyrimidin-4-amine]",6.89
16,"Cn1ncc2ccc(-c3cn(Cc4cn(-c5ccccc5F)nn4)c4ncnc(N)c34)cc21 [Example 73, 7-{[1-(2-Fluorophenyl)-1H-1,2,3-triazol-4-yl]methyl}-5-(1-methyl-1H-indazol-6-yl)-7H-pyrrolo[2,3-d]pyrimidin-4-amine]",6.49
17,"Cn1cc2cc(-c3cn(Cc4cn(-c5ccccc5F)nn4)c4ncnc(N)c34)ccc2n1 [Example 76, 7-{[1-(2-Fluorophenyl)-1H-1,2,3-triazol-4-yl]methyl}-5-(2-methyl-2H-indazol-5-yl)-7H-pyrrolo[2,3-d]pyrimidin-4-amine]",5.62
18,"Cn1ncc2c(-c3cn(Cc4cn(-c5ccccc5F)nn4)c4ncnc(N)c34)cccc21 [Example 78, 7-{[1-(2-Fluorophenyl)-1H-1,2,3-triazol-4-yl]methyl}-5-(1-methyl-1H-indazol-4-yl)-7H-pyrrolo[2,3-d]pyrimidin-4-amine]",5.86
19,"Nc1ncnc2c1c(-c1cnc3[nH]ccc3c1)cn2Cc1cn(-c2ccccc2F)nn1 [Example 80, 7-{[1-(2-Fluorophenyl)-1H-1,2,3-triazol-4-yl]methyl}-5-(7H-pyrrolo[2,3-b]pyridin-5-yl)-7H-pyrrolo[2,3-d]pyrimidin-4-amine]",5.42
20,"COc1cc(-c2cn(Cc3cn(-c4ccccc4F)nn3)c3ncnc(N)c23)ccc1C#N [Example 84, 4-(4-Amino-7-{[1-(2-fluorophenyl)-1H-1,2,3-triazol-4-yl]methyl}-7H-pyrrolo[2,3-d]pyrimidin-5-yl)-2-methoxybenzonitrile]",5.81
21,"CC(=O)c1ccc(-c2cn(C(C)c3cn(-c4ccccc4F)nn3)c3ncnc(N)c23)s1 (stereo not drawn) [Example 91, 1-[5-(4-Amino-7-{1-[1-(2-fluorophenyl)-1H-1,2,3-triazol-4-yl]ethyl}-7H-pyrrolo[2,3-d]pyrimidin-5-yl)thiophen-2-yl]ethanone]",6.95
22,"CC(c1cn(-c2ccccc2F)nn1)n1cc(-c2cccc3c2cnn3C)c2c(N)ncnc21 (stereo not drawn) [Example 92, 7-{1-[1-(2-Fluorophenyl)-1H-1,2,3-triazol-4-yl]ethyl}-5-(1-methyl-1H-indazol-4-yl)-7H-pyrrolo[2,3-d]pyrimidin-4-amine]",5.62
23,"COc1cc2c(cc1-c1cn(C(C)c3cn(-c4ccccc4F)nn3)c3ncnc(N)c13)CCCC2 (stereo not drawn) [Example 93, 7-{1-[1-(2-Fluorophenyl)-1H-1,2,3-triazol-4-yl]ethyl}-5-(3-methoxy-5,6,7,8-tetrahydronaphthalen-2-yl)-7H-pyrrolo[2,3-d]pyrimidin-4-amine]",6.16
24,"CC(c1cn(-c2ccccc2F)nn1)n1cc(-c2ccc3c(cnn3C)c2)c2c(N)ncnc21 (stereo not drawn) [Example 95, 7-{1-[1-(2-Fluorophenyl)-1H-1,2,3-triazol-4-yl]ethyl}-5-(1-methyl-1H-indazol-5-yl)-7H-pyrrolo[2,3-d]pyrimidin-4-amine]",6.31
25,"CC(c1cn(-c2ccccc2F)nn1)n1cc(-c2cnc3ccccc3c2)c2c(N)ncnc21 (stereo not drawn) [Example 100, 7-{1-[1-(2-Fluorophenyl)-1H-1,2,3-triazol-4-yl]ethyl}-5-(quinolin-3-yl)-7H-pyrrolo[2,3-d]pyrimidin-4-amine]",6.56
26,"CC(c1cc(-c2ccccc2F)no1)n1cc(-c2ccc3c(c2)C(=O)N(C)C3)c2c(N)ncnc21 (stereo not drawn) [Example 101, 6-(4-Amino-7-{1-[3-(2-fluorophenyl)-1,2-oxazol-5-yl]ethyl}-7H-pyrrolo[2,3-d]pyrimidin-5-yl)-2-methyl-2,3-dihydro-1H-isoindol-1-one]",5.39
27,"CC(c1cc(-c2ccccc2F)no1)n1cc(-c2ccc3c(c2)OCCO3)c2c(N)ncnc21 (stereo not drawn) [Example 102, 5-(2,3-Dihydro-1,4-benzodioxin-6-yl)-7-{1-[3-(2-fluorophenyl)-1,2-oxazol-5-yl]ethyl}-7H-pyrrolo[2,3-d]pyrimidin-4-amine]",6.49
